The values that follow come from PubChem BioAssay AID2374 (NMMLSC, 2010).

For this test, the target named is Cell division control protein 42 homolog (Homo sapiens) (UniProt P60953). Description: inhibition of GTPgammaS loading onto Cdc42, late-stage follow-up, orthogonal assay for Ras-related GTPase inhibitor project, biochemical, purified His-Cdc42, PAK-PBD pull-down, Western blot (AID 2374). The conditions noted are these: His-Cdc42 GTPgS loading, at 10 µM, stronger effect = higher value.
Cell division control protein 42 homolog (Homo sapiens), sequence (P60953 whole entry, looked up): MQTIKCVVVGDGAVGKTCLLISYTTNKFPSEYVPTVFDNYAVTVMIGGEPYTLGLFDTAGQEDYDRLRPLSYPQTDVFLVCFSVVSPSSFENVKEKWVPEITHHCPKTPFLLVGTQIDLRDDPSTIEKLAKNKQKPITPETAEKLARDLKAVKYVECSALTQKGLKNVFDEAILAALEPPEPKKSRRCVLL

On to `COc1ccc(C2CC(c3ccccc3)=NN2c2ccc(S(N)(=O)=O)cc2)cc1` (stereo not drawn), for which the inhibition is 60%. Also, the inhibition (at 0.1 uM GTPgS) stood at 96%. The compound further yielded an inhibition (at 0.5 uM GTPgS) of 94%.

What is called inhibition is the relative decrease from the control value, in per cent.
